Test results taken from patent publication US5817617A, “Selectin and pertussis toxin derived peptides and uses thereof” (The Rockefeller University, priority 1994, dated 1998).
“Also recorded” adds a separate entry of the source. Where a SMILES comes first, the peptide text is derived from it.

Columns and labels:
[1] = system: endothelial cells; experiment: Assay 2: inhibition of adherence of a neutrophil to a monolayer of endothelial cells; type: cell-based; details: peptide at 1 mg/ml; for % of inhibition ASSAY 2: neutrophil on monolayer of endothelial cells
From the text: Assay 2 is inhibition of adherence of a neutrophil to a monolayer of endothelial cells as described by Lo et al J. Exp. Med. 173:1493-1500 (1991). Values ±50% inhibition are significant.

[2] = system: CR3; experiment: Assay 3: upregulation of integrins (CR3) on the surface of a neutrophil, detected with EC3bi (FIG. 5); type: cell-based; details: for # of cells ASSAY 3: peptide at 1 mg/ml, upregulation of integrins on neutrophil; for ability to upregulate integrins on leukocytes, assay 3 (in words): peptides of Table 2
Protocol: EC3bi is an erythrocyte coated with the complement component C3bi and is used to detect the presence of CR3 on the surface of a leukocyte according to the procedure of Wright et al (supra).
The test was conducted with separate proteins in tissue culture as in the experiment described in connection with the previous figure.
Assay 3 measures upregulation of integrins on the surface of a neutorphil as described in FIG. 5. Values ±50% are significant.

[3] = system: leukocytes in cerebrospinal fluid; experiment: Rabbit model of pneumococcal meningitis: leukocytes in cerebrospinal fluid (FIG. 6b, 7B); type: in vivo; details: rabbits with established pneumococcal meningitis; intravenous PT or B-oligomer
From the text: This is shown experimentally in FIG. 6b. In the experiments rabbits with established pneumonococcal meningitis received intravenous PT or B-oligomer.
FIG. 7B illustrates the use of anti S-segment antibodies to decrease the inflammation in a rabbit model of meningitis. Rabbits with established pneumonococcal meningitis received antibodies to intact PT or PT subunits: S2:3A12, S3:6F8 and S4:9C6.

[4] = system: ciliated cells; experiment: Reconstitution of adherence of B. pertussis mutant BPTOX6 to ciliated cells by exogenous PT and subunits; type: cell-based; details: PT component 50 ug/ml coated on BPTOX6; 10^7 bacteria, 10^5 rabbit ciliated cells, 3 hours; mean ± standard deviation
Protocol: (§1) The ability of PT or the individual subunits to act as adhesins for PT-deficient bacteria to eukaryotic cells was assessed as described by Tuomanen et al (1985). Infect. Dis. 153, 118-125 and Relman et al (199) Cell 61, 1375-1382. […] For the test reported in Table 1 PT or its individual subunits (50 ug/ml) were incubated for 30 minutes with strain BPTOX6 for ciliated cell assays or BP101/TOX6 for macrophage assays in order to coat the bacteria with adhesin. 10^7 bacteria were then incubated for 3 hours with 10^5 ciliated cells or alveolar macrophages harvested from healthy rabbits (2,4). Adherence was detected by staining of the bacteria with a 1:40 dilution of fluorescein conjugated anti-Bordetella antibody (Difco, Detroit, Mich.). Values are expressed as the mean ±standard deviation of the number of bacteria per eukaryotic cell, 25 cells/test, and each test repeated in triplicate. The procedure is described in more detail in Saukkonen et al Proc. Natl. Acad. Sci. 89,118-122 (1991).

[5] = Carbohydrate recognition: binding to glycolipids separated by thin layer chromatography (FIG. 3)
From the text: The variability in the S2 and S3 segments shown in FIG. 1 SEQ ID NOS:42-47 is, quite clearly responsible for the variation in carbohydrate binding properties of PT, S2 and S3 which have been observed.
The peptides S2/S3 and S3/S2 are novel therapeutic agents and are specifically included within the scope of this invention, as are the genes which express them.
In FIG. 3, the dark bars represent the positions of glycolipids after separation by thin layer chromatography in accordance with the method of Tuomanen et al, J. Exp Med 168:267, 1988.

[6] = system: alveolar macrophages; experiment: Reconstitution of adherence of B. pertussis mutant BP101/TOX6 to macrophages by exogenous PT and subunits; type: cell-based; details: PT component 50 ug/ml coated on BP101/TOX6; 10^7 bacteria, 10^5 rabbit alveolar macrophages, 3 hours; mean ± standard deviation
Protocol: as §1

[7] = system: ELAM; experiment: Assay 1: inhibition of adherence of neutrophils to ELAM-coated surfaces (FIG. 4); type: cell-based; details: protein at 50 ug/ml, compared to buffer control
Protocol: (§2) In the study, the proteins PT, B-oligomer, S2, S3, S2/S3 and S3/S2 were taken up in an isotonic buffered tissue culture medium to a concentration of 50 ug/ml and the ability of each of them to inhibit adhesion of neutrophils to ELAM or GMP140 was determined as described by Wright et al J. Exp. Med. 158:2016 (1983). The buffer was employed as the control and each protein studied was compared to the control for the ability to decrease adhesion capacity.
Assay 1 is inhibition of adherence of enutrophils to ELAM-coated surfaces as described in connection with FIG. 4. Values ±20% inhibition are significant.

[8] = system: GMP140; experiment: Inhibition of adhesion of neutrophils to GMP140 (FIG. 4B); type: cell-based; details: protein at 50 ug/ml, compared to buffer control
Protocol: as §2

Molecule	% of inhibition ASSAY 2 [1] [%]	# of cells ASSAY 3 [2]	ability to upregulate integrins on leukocytes, assay 3 (in words) [2]	activity in Assays 1 or 2 (in words) ([1]; adherence of leukocytes to selectins or endothelial cells bearing selectins)	accumulation of leukocytes in cerebrospinal fluid [3]	Number of bacteria/target cell, Ciliated Cell [4] [bacteria/target cell]	carbohydrates (glycolipids) recognized [5]	Number of bacteria/target cell, Macrophage [6] [bacteria/target cell]	inhibition of neutrophil/leukocyte adherence to ELAM [7] [%]	inhibition of neutrophil adhesion to GMP140 [8] [%]
CC[C@H](C)[C@H](NC(=O)[C@H](C)NC(=O)[C@@H](NC(=O)[C@H](CC(C)C)NC(=O)[C@@H](N)[C@@H](C)O)C(C)C)C(=O)N[C@@H](CCC(N)=O)C(=O)N[C@@H](CC(N)=O)C(=O)N[C@@H](CCCCN)C(=O)N[C@@H](CCC(=O)O)C(=O)N[C@@H](CCC(=O)O)C(=O)N[C@H](C(=O)N[C@@H](CCC(=O)O)C(=O)N[C@@H](Cc1ccc(O)cc1)C(=O)N[C@@H](CC(C)C)C(=O)O)[C@@H](C)CC [SEQ ID NO:30, TLVAIQNKEEIEYL] (H-TLVAIQNKEEIEYL-OH)	80	243 # of cells	ability to upregulate integrins on leukocytes	–	–	–	–	–	–	–
CC(C)C[C@H](NC(=O)[C@H](Cc1ccc(O)cc1)NC(=O)[C@H](CCC(=O)O)NC(=O)[C@H](CCC(N)=O)NC(=O)[C@H](CC(C)C)NC(=O)[C@H](CC(=O)O)NC(=O)CNC(=O)[C@H](CO)NC(=O)CNC(=O)[C@H](CC(C)C)NC(=O)[C@H](CCC(=O)O)NC(=O)[C@H](C)NC(=O)[C@@H](NC(=O)[C@@H](NC(=O)[C@H](CC(C)C)NC(=O)[C@H](C)N)[C@@H](C)O)C(C)C)C(=O)O [SEQ ID NO:36, ALTVAELGSGDLQEYL] (H-ALTVAELGSGDLQEYL-OH)	80	232 # of cells	ability to upregulate integrins on leukocytes	active	–	–	–	–	–	–
pertussis toxin [PT]	–	–	–	–	decreased the accumulation of leukocytes in cerebrospinal fluid	6.7 ± 0.8	binds to lactosylceramide, glucosylceramide, sulfatides and gangliosides; also recorded: recognize lactosylaceramide, and gangliosides	21 ± 2.3	60	30
